In patent US11795159B2 (priority 2021, dated 2023):
Like-named read-outs stand apart in the source and are kept apart here.

How the values were obtained:
SARS-CoV-2 3CLpro = SARS-CoV-2 3CLpro (Severe acute respiratory syndrome coronavirus 2 (2019-nCoV) (SARS-CoV-2), UniProt P0DTD1); assay: biochemical
SARS-CoV-2 = assay: microbe, parasite or virus in culture; format: cell-based; conditions: Severe acute respiratory syndrome coronavirus 2, 72 h, read-out: ID50 (Antiviral Data)
[1] = read-out: IC50 (SARS-CoV-2 3CLpro Inhibition)
[2] = IC50 (SARS-CoV-2 3CLpro Inhibition)

C=CC(=O)N1CCCC1C(=O)N(c1ccc(C(C)(C)C)cc1)C(C(=O)NC(C)(C)C)c1cccnc1 (stereo not drawn) [Compound 1]
IC50 (SARS-CoV-2 3CLpro; [1]): > 100 µM

C=C(C)C(=O)N1CCCC1C(=O)N(c1ccc(C(C)(C)C)cc1)C(C(=O)NC(C)(C)C)c1cccnc1 (stereo not drawn) [Compound 2]
IC50 (SARS-CoV-2 3CLpro; [2]): > 100 µM
IC50 (SARS-CoV-2): > 100 µM

C/C=C(\C)C(=O)N1CCCC1C(=O)N(c1ccc(C(C)(C)C)cc1)C(C(=O)NC(C)(C)C)c1cccnc1 (stereo not drawn) [Compound 3]
IC50 (SARS-CoV-2 3CLpro; [2]): > 100 µM
IC50 (SARS-CoV-2): > 100 µM

C=C(C)C(=O)N1CCCC1C(=O)N(c1ccc(C(C)(C)C)cc1)C(C(=O)NC(C)(C)C)c1cccnc1 (stereo not drawn) [Compound 4]
IC50 (SARS-CoV-2 3CLpro; [1]): > 100 µM

CCC(=O)N1CCCC1C(=O)N(c1ccc(C(C)(C)C)cc1)C(C(=O)NC(C)(C)C)c1cccnc1 (stereo not drawn) [Compound 5]
IC50 (SARS-CoV-2 3CLpro; [2]): > 100 µM
IC50 (SARS-CoV-2): > 100 µM

C/C=C(\C)C(=O)N1CCC[C@@H]1C(=O)N(c1ccc(C(C)(C)C)cc1)C(C(=O)NC(C)(C)C)c1cccnc1 (stereo partly drawn) [Compound 6]
IC50 (SARS-CoV-2 3CLpro; [2]): 10.1 to 100 µM

C/C=C/C(=O)N1CCCC1C(=O)N(c1ccc(C(C)(C)C)cc1)C(C(=O)NC(C)(C)C)c1cccnc1 (stereo not drawn) [Compound 7]
IC50 (SARS-CoV-2 3CLpro; [2]): 1 to 10 µM
IC50 (SARS-CoV-2): > 100 µM

C/C=C/C(=O)N1CCCC1C(=O)N(c1ccc(C(C)(C)C)cc1)C(C(=O)NC(C)(C)C)c1cccnc1 (stereo not drawn) [Compound 8]
IC50 (SARS-CoV-2 3CLpro; [2]): 10.1 to 100 µM

C=CC(=O)N1CCC(C(=O)N(c2ccc(C(C)(C)C)cc2)C(C(=O)NC(C)(C)C)c2cccnc2)C1 (stereo not drawn) [Compound 9]
IC50 (SARS-CoV-2 3CLpro; [2]): 10.1 to 100 µM
IC50 (SARS-CoV-2): > 100 µM

C=CC(=O)N1CC[C@@H](C(=O)N(c2ccc(C(C)(C)C)cc2)C(C(=O)NC(C)(C)C)c2cccnc2)C1 (stereo partly drawn) [Compound 10]
IC50 (SARS-CoV-2 3CLpro; [2]): 10.1 to 100 µM

C=CS(=O)(=O)N1CCCC1C(=O)N(c1ccc(C(C)(C)C)cc1)C(C(=O)NC(C)(C)C)c1cccnc1 (stereo not drawn) [Compound 11]
IC50 (SARS-CoV-2 3CLpro; [2]): > 100 µM
IC50 (SARS-CoV-2): > 100 µM

C=CC(=O)N1CCCC1C(=O)N(c1ccc(C(C)(C)C)cc1)C(C(=O)NC(C)(C)C)c1cccnc1 (stereo not drawn) [Compound 12]
IC50 (SARS-CoV-2 3CLpro; [2]): > 100 µM
IC50 (SARS-CoV-2): > 100 µM

C=CS(=O)(=O)N1CC[C@@H](C(=O)N(c2ccc(C(C)(C)C)cc2)C(C(=O)NC(C)(C)C)c2cccnc2)C1 (stereo partly drawn) [Compound 13]
IC50 (SARS-CoV-2 3CLpro; [2]): > 100 µM
IC50 (SARS-CoV-2): > 100 µM

C=CS(=O)(=O)N1CC[C@@H](C(=O)N(c2ccc(C(C)(C)C)cc2)C(C(=O)NC(C)(C)C)c2cccnc2)C1 (stereo partly drawn) [Compound 14]
IC50 (SARS-CoV-2 3CLpro; [1]): > 100 µM

C=CC(=O)N1CCC(F)(F)CC1C(=O)N(c1ccc(C(C)(C)C)cc1)C(C(=O)NC(C)(C)C)c1cccnc1 (stereo not drawn) [Compound 15]
IC50 (SARS-CoV-2 3CLpro; [2]): > 100 µM
IC50 (SARS-CoV-2): > 100 µM
